Results from ChEMBL document CHEMBL5385848, “Discovery of novel hydroxyamidine based indoleamine 2,3-dioxygenase 1 (IDO1) and thioredoxin reductase 1 (TrxR1) dual inhibitors” (Eur J Med Chem, 2023).
Activity calls are given as the source filed them. The calls are words filed in the database; no cut-off is given here.

Legend:
[1] = target: T1, Indoleamine 2,3-dioxygenase 2 (Homo sapiens, UniProt Q6ZQW0); test: Inhibition of IDO2 (unknown origin) using D-Trp as substrate incubated for 1 hr
T1 sequence (Q6ZQW0 whole entry): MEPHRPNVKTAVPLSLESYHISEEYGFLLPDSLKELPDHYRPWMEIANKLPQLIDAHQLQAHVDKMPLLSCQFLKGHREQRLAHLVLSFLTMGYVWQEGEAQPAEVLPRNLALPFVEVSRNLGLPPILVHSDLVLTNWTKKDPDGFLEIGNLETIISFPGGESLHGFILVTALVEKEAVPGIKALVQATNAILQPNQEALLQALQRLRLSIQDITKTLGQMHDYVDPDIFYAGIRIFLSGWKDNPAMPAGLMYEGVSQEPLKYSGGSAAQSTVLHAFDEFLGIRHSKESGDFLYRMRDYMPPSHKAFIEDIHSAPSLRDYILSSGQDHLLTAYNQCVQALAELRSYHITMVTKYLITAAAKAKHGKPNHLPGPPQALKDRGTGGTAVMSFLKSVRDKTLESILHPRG

[2] = Cytotoxicity against mouse CT26 cells incubated for 48 hrs by CCK-8 assay; format: toxicity, cell-based
[3] = tested on: CT26; test: Antitumor activity against mouse CT26 cells implanted in athymic nude BALB/c mouse assessed as increase in CTL proliferation by measuring Ki67 expression at 15 to 60 mg/kg, ig administered daily for 28 days and measured every 4 days by flow cytometry analysis; format: functional, organism-based; conditions: dose 15-60 mg/kg, time 28.0 day
[4] = Toxicity in athymic nude BALB/c mouse assessed as weight gain at 15 to 60 mg/kg, ig administered daily for 28 days and measured every 4 days; format: organism-based; conditions: in vivo, po, 672 h, dose 15-60 mg/kg, time 28 day
[5] = target: Indoleamine 2,3-dioxygenase 1 (Mus musculus) (UniProt P28776); test: In vivo inhibition of IDO1 in BALB/c mouse implanted with mouse CT-26 cells assessed as increase in tumor Trp level at 60 mg/kg, po administered once daily by LC-MS/MS analysis; format: functional, organism-based
[6] = target: Indoleamine 2,3-dioxygenase 1 (Mus musculus) (UniProt P28776); test: In vivo inhibition of IDO1 in BALB/c mouse implanted with mouse CT-26 cells assessed as reduction in plasma Kyn level at 60 mg/kg, po administered once daily by LC-MS/MS analysis; format: functional, organism-based
[7] = tested on: HCT-116; test: Cytotoxicity against human HCT-116 cells incubated for 24 hrs CCK-8 assay; format: functional, cell-based; conditions: HCT-116, 24 h
[8] = tested on: IDO1; test: Selectivity ratio of IC50 for cytotoxicity against mouse CT26 cells to EC50 for inhibition of IDO1 in mouse CT26 cells; format: cell-based; conditions: read-out: Ratio IC50/EC50
[9] = tested on: CT26; test: Antitumor activity against mouse CT26 cells implanted in athymic nude BALB/c mouse assessed as reduction in nTreg lymphocytes at 15 to 60 mg/kg, ig administered daily for 28 days and measured every 4 days by immunofluorescence analysis; format: functional, organism-based; conditions: dose 15-60 mg/kg, time 28.0 day
[10] = tested on: HCT-116; test: Induction of apoptosis in human HCT-116 cells assessed as apoptotic rate at 10 uM incubated for 24 hrs by Annexin-V/PI staining based flow cytometry analysis; format: functional
[11] = tested on: HCT-116; test: Induction of cell cycle arrest in human HCT-116 cells assessed as G1/S phase arrest at 2.5 to 10 uM pretreated with NAC for 2 hrs followed by compound addition and measured after 12 hrs by PI staining based flow cytometry analysis; format: functional; conditions: dose 2.5-10 µM
[12] = Toxicity in athymic BALB/c mouse xenografted with human HCT-116 cells assessed as change in lung morphology at 15 to 60 mg/kg, ig administered daily for 28 days and measured every 4 days; format: organism-based; conditions: in vivo, po, 672 h, dose 15-60 mg/kg, time 28 day
[13] = target: Indoleamine 2,3-dioxygenase 1 (Homo sapiens, UniProt P14902); test: Inhibition of IDO1 in human HCT-116 cells using L-Tryptophan as substrate incubated for 24 hrs by microplate reader analysis; format: cell-based
[14] = target: T2, Thioredoxin reductase 1, cytoplasmic (Homo sapiens, UniProt Q16881); test: Inhibition of TrxR1 in human HCT-116 cells incubated for 24 hrs; format: cell-based
T2 sequence (Q16881 whole entry): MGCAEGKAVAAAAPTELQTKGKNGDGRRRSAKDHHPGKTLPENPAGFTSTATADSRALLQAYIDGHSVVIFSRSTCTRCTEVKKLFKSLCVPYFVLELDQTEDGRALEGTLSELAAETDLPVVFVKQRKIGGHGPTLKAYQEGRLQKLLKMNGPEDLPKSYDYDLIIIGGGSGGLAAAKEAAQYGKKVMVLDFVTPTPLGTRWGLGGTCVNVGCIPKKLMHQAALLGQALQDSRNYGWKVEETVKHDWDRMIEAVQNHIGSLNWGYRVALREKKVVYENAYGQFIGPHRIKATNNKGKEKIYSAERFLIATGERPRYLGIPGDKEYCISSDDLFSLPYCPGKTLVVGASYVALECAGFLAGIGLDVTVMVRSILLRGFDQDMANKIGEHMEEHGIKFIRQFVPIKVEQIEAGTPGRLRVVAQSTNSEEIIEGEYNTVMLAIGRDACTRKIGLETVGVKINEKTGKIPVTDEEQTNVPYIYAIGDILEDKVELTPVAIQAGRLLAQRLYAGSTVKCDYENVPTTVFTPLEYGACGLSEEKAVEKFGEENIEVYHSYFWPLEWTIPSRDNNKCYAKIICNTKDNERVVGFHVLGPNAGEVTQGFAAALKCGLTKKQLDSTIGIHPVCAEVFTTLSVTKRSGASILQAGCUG

[15] = tested on: HCT-116; test: Antitumor activity against human HCT-116 cells xenografted in athymic nude BALB/c mouse assessed as increase in apoptotic cells at 15 to 60 mg/kg, ig administered daily for 28 days and measured every 4 days by tunel assay; format: functional, organism-based; conditions: dose 15-60 mg/kg, time 28.0 day
[16] = tested on: HeLa; test: Induction of ROS generation in human HeLa cells incubated for 4 hrs by DCFH-DA staining based flow cytometry analysis; format: functional, cell-based; conditions: dose 2.5-10 µM
[17] = tested on: HeLa; test: Induction of cell cycle arrest in human HeLa cells assessed as G1/S phase arrest at 2.5 to 10 uM incubated for 24 hrs by PI staining based flow cytometry analysis; format: functional; conditions: dose 2.5-10 µM
[18] = tested on: HCT-116; test: Cytotoxicity against human HCT-116 cells transfected with TrxR1 siRNA incubated for 24 hrs by CCK-8 assay (reference value: 3.49 +/- 0.28 uM); format: functional, cell-based; conditions: HCT-116, 24 h
[19] = Toxicity in athymic BALB/c mouse xenografted with human HCT-116 cells assessed as change in spleen morphology at 15 to 60 mg/kg, ig administered daily for 28 days and measured every 4 days; format: organism-based; conditions: in vivo, po, 672 h, dose 15-60 mg/kg, time 28 day
[20] = tested on: Mus musculus; test: In vivo inhibition of TrxR1 in human HCT-116 cells xenografted in athymic nude BALB/c mouse assessed as reduction in TrxR1 activity at 15 to 60 mg/kg, ig administered daily for 28 days and measured every 4 days; format: functional, organism-based; conditions: dose 15-60 mg/kg, time 28.0 day
[21] = target: Indoleamine 2,3-dioxygenase 1 (Mus musculus) (UniProt P28776); test: In vivo inhibition of IDO1 in BALB/c mouse implanted with mouse CT-26 cells assessed as reduction in tumor Kyn level at 60 mg/kg, po administered once daily by LC-MS/MS analysis; format: functional, organism-based
[22] = tested on: HeLa; test: Cytotoxicity against human HeLa cells incubated for 24 hrs CCK-8 assay; format: functional, cell-based
[23] = tested on: HCT-116; test: Antitumor activity against human HCT-116 cells xenografted in ig dosed athymic nude BALB/c mouse assessed as tumor growth inhibition administered daily for 28 days and measured every 4 days; format: functional, organism-based; conditions: dose 15-60 mg/kg, time 28.0 day

Indoleamine 2,3-dioxygenase 1 (Mus musculus), sequence (P28776 whole entry, looked up): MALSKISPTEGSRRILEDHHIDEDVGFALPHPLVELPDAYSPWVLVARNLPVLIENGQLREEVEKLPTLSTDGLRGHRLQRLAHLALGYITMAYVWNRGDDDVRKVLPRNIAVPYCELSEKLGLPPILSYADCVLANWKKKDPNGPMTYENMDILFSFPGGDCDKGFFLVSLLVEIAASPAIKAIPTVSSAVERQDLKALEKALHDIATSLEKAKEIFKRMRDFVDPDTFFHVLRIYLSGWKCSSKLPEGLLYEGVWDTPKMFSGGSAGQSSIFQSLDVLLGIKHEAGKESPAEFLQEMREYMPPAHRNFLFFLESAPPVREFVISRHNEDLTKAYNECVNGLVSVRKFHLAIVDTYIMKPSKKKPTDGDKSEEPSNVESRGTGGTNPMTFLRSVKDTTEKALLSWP
Indoleamine 2,3-dioxygenase 1, sequence (P14902 whole entry): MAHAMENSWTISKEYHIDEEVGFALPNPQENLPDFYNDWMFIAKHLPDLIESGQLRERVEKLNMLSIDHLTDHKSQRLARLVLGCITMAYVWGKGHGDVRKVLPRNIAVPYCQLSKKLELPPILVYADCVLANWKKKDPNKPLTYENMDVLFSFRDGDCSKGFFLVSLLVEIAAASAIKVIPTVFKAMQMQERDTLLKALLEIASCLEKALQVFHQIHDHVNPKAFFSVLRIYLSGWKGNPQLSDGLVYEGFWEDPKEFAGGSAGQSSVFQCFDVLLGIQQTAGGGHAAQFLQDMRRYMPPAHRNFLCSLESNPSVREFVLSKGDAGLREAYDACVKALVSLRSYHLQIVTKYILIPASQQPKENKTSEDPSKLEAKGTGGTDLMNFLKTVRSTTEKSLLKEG

IC50 [1]: 22.2 µM
Activity [5]: Active
Activity [6]: Active
EC50 [13]: 34.1 µM
EC50 [14]: 3.14 µM
Activity [21]: Active
Structure (SMILES): O=C(Cc1ccc(O)cc1)Nc1nnc(CCCNc2nonc2/C(=N\O)Nc2ccc(F)c(Br)c2)s1
IC50 at 48 h [2]: 12.4 µM
Activity [3]: Active
Activity [4]: Toxic
IC50 [7]: 3.33 µM
selectivity ratio [8]: 5.35
Activity [9]: Active
Activity [10]: 60.55%
Activity [11]: inactive
Activity [12]: Non-Toxic
Activity [15]: Active
Activity [16]: Dose-Dependent Effect
Activity [17]: Active
IC50 [18]: 1.67 µM
Activity [19]: Non-Toxic
Activity [20]: Active
IC50 [22]: 16.1 µM
Activity [23]: Active
